How the values were obtained:
[1] = test system: ethylene-induced epinasty in Patio variety tomato plants; experiment: Tomato epinasty test, spray application treatment; assay type: in vivo; settings: spray 10 ppm in 10% acetone/90% water, 0.05% Silwett L-77; 10 ppm ethylene; scale 0 to 10 (10 = complete protection)
Experimental: (§1) Objective: The test procedure is designed to determine the ability of an experimental compound to block the epinastic growth response induced by ethylene in tomato plants when the experimental compound is administered either as a volatile gas or as a component of a spray solution.
(§2) Treatment chambers are of an appropriate size for the test plants and are airtight. Each is fitted with a reusable septum to be used for injection of ethylene. Test plants are Patio variety tomato seedlings planted two plants per three inch square plastic pot.
Spray application treatment entails using a DeVilbiss atomizer to completely cover all foliage and stems of two pots of Patio var. tomato plants with the appropriate amount of experimental compound dissolved in 10% acetone/90% water with 0.05% Silwett L-77 surfactant. Plants are air-dried in a drying hood for four hours then transferred to a 4.8 L polystyrene chamber which is sealed.
Ethylene gas equal to 10 ppm v/v final concentration is injected into the sealed chamber. Sixteen hours later the chambers are opened in an exhaust hood, allowed to air and the plants scored visually for the degree of protection against ethylene-induced epinasty conferred by the experimental compound when compared to ethylene treated and untreated controls on a scale of 0 to 10. A rating of 10 means complete protection. A rating of 0 means no protection from the effects of ethylene.

[2] = test system: ethylene-induced epinasty in Patio variety tomato plants; experiment: Tomato epinasty test, volatile gas treatment; assay type: in vivo; settings: for Gas @ 10 ppm: visual rating of protection against ethylene-induced epinasty: gas 10 ppm v/v, 10 ppm ethylene, scale 0 to 10 (10 = complete protection); for Gas @ 1000 ppm: visual rating of protection against ethylene-induced epinasty: gas 1000 ppm v/v, 10 ppm ethylene after 4 h, scored 16 h later, scale 0 (no protection) to 10 (complete protection); for Gas, tested at 850 ppm: rating of protection against epinasty: gas 850 ppm (footnote b or in cell)
Experimental: as §1, §2
Volatile gas treatment entails placing two pots of Patio var. tomatoes into a polystyrene 4.8 L volume treatment chamber along with one-half (upper or lower section) of a 50×9 mm plastic Petri dish containing a Gelman filter pad. The appropriate amount of experimental compound, dissolved in 1.0 ml acetone, is pipetted onto the filter pad and the chamber immediately sealed. Four hours later ethylene gas equal to 10 ppm v/v final concentration is injected into the sealed chamber. Sixteen hours later the chambers are opened in an exhaust hood, allowed to air and the plants scored visually for the degree of protection against ethylene-induced epinasty conferred by the experimental compound when compared to ethylene treated and untreated controls on a scale of 0 to 10. A rating of 10 means complete protection. A rating of 0 means no protection from the effects of ethylene. Gas treatment concentrations are volume/volume.

Compound | Spray @10 ppm: visual rating of protection against ethylene-induced epinasty [1] | Gas @ 10 ppm: visual rating of protection against ethylene-induced epinasty [2] | Gas @ 1000 ppm: visual rating of protection against ethylene-induced epinasty [2] | also measured
CC(C)(C1=CC1)c1ccccc1 [Compound 5, 1-(α,α-dimethylbenzyl)-cyclopropene] | 2 | 5 |  | 
CS(=O)(=O)OCCCCCCCC1=CC1 [Compound 69, 1-(7-Methanesulfonyloxyheptyl)-cyclopropene] | 0 | 0 | 8 | 
CCCCCCCCC1=C([Si](C)(C)C)C1 [Compound 67, 2-Octyl-1-trimethylsilylcyclopropene] | 3 | 6 |  | 
COc1ccccc1CC1=CC1 [Compound 26] | 5 | 10 |  | 
C1=C(CC2CCCCC2)C1 [Compound 23] | 10 | 10 |  | 
C(CCCCCCC1=CC1)=NN1CCCCC1 [Compound 36, 1-(7-(N-piperidinoimino-heptyl))-cyclopropene] | 3 | 5 |  | Gas @ 500 ppm: rating of protection against epinasty ([2]; gas 500 ppm, scale 0 to 10): 10^c^
C1=C(CCCC2OCCO2)C1 [Compound 33] | 0 | 8 |  | 
CCC1=C(n2cc(Br)cn2)C1 [Compound 11, 2-(1-(4-Bromopyrazole))-1-ethylcyclopropene] | 0 | 2 |  | Gas, tested at 600 ppm: rating of protection against epinasty ([2]; gas 600 ppm (footnote a), scale 0 to 10): 8^a
CCCC[Si](C)(C)C1=C(C)C1 [Compound 80, 1-(Butyldimethylsilyl)-2-methylcyclopropene] | 0 | 0 | 7 | 
CCC1=C(COc2cccc(C(F)(F)F)c2)C1 [Compound 37, 1-(3-trifluoromethylphenoxymethyl)-2-ethylcyclopropene] | 0 | 0 | 2 | 
C1=C(CC2CCCC2)C1 [Compound 31] | 7.5 | 9 |  | 
C1=C(Cc2cccs2)C1 [Compound 2, 1-(2-Thienyl)methyl-cyclopropene] | 7 | 10 |  | 
Clc1ccc(SCCC2=CC2)cc1 [Compound 9, 1-(2-(4-Chlorophenylthio)ethyl)cyclopropene] | 10 | 10 |  | 
C1=C(CCCSc2ccccn2)C1 [Compound 55, 1-(2-Pyridylthiopropyl)-cyclopropene] | 3 |  |  | Gas @ 800 ppm: rating of protection against epinasty ([2]; gas 800 ppm (in cell), scale 0 to 10): 10(@800
O=S(=O)(OCCC1=CC1)c1ccccc1 [Compound 10, 2-(2-Benzenesulfonyloxyethyl)-cyclopropene] | 10 | 10 |  | 
Cc1ccc(C(=O)OCCCCC2=CC2)cc1 [Compound 44, 1-(4-Methylphenylcarbonyloxybutyl)-cyclopropene] | 0 | 0 | 7 | 
CCCCCCCCC1=C(B2OCO2)C1 [Compound 38, 2-Octyl-1-(2-(2-boro-1,3dioxetane))-cyclopropene] | 0 | 3 |  | Gas, tested at 850 ppm: rating of protection against epinasty ([2]; scale 0 to 10): 10(@850
CC1(Cc2ccccc2)C=C1 [Compound 20] | 0 | 0 | 7 | 

Compound | Spray @10 ppm: visual rating of protection against ethylene-induced epinasty [1] | Gas @ 10 ppm: visual rating of protection against ethylene-induced epinasty [2] | Gas @ 1000 ppm: visual rating of protection against ethylene-induced epinasty [2] | also measured
1-(1-Methyl-2-pyrrolecarbonyloxypropyl)-cyclopropene [Compound 59] | 4 | 3 |  | 
O=C(O)CC1(c2ccccc2)C(c2ccccc2)=C1c1ccccc1 [Compound 40, 3-Hydroxycarbonylmethyl-1,2,3-triphenylcyclopropene] | 0 | 7 |  | 
C[Si](C)(C)CC1=CC1 [Compound 64, 1-Trimethylsilylmethylcyclopropene] | 9 | 10 |  | 
O=C(OCCCC1=CC1)c1cnccn1 [Compound 61] | 0 | 0 |  | Gas @ 438 ppm: rating of protection against epinasty ([2]; gas 438 ppm (in cell), scale 0 to 10): 10(@438
C1=C(CCCCCCCn2cccn2)C1 [Compound 32] | 10 | 3 | 10 | 
O=C(OCCC1=CC1)c1cnc(Cl)c(Cl)c1 [Compound 50] | 0 | 0 | 9 | 
CCOC(=O)CCC1=C(Br)C1 [Compound 76] | 0 | 10 |  | 
C1=C(CCCCCCCn2ccnc2)C1 [Compound 12, 7-(1-Imidazole)-1-heptylcyclopropene] | 3.5 | 5.5 |  | Gas, tested at 850 ppm: rating of protection against epinasty ([2]; scale 0 to 10): 10^b
CS(=O)(=O)OCCCCC1=CC1 [Compound 85, 1-(4-Methanesulfonyloxybutyl)-cyclopropene] | 0 | 0 | 10 | 
C[Si](C)(CCCCCCC1=CC1)c1ccccc1 [Compound 4, 1-(6-(Phenyldimethylsilyl)-hexyl)-cyclopropene] | 10 | 4 |  | 
ClC1=C(Cc2ccccc2)C1 [Compound 46, 1-Benzyl-2-chlorocyclopropene] | 0 | 5 | 10 | 
C1=C(CCCCc2ccccc2)C1 [Compound 27] | 10 | 10 |  | 
CCOP(=S)(OCC)SCC1=C(CC)C1 [Compound 84, 1-(Diethoxy-thiophosphorylthiomethyl)-2-ethylcyclopropene] | 0 | 0 | 10 | 
CC1(COc2ccccc2)C=C1 [Compound 7, 3-Methyl-3-Phenoxymethylcycloprop-2-ene] | 2 | 4 | 10 | 
O=C(OCC1=CC1)c1ccco1 [Compound 47] | 0 | 0 |  | Gas @ 551 ppm: rating of protection against epinasty ([2]; gas 551 ppm (in cell), scale 0 to 10): 10(@551
O=S(=O)(OCCCCCCCCC1=CC1)c1ccccc1 [Compound 56, 1-(8-Benzenesulfonyloxyoctyl)-cyclopropene] | 10 | 5 |  | 
CC1=C([Si](C)(C)C)C1(C)C [Compound 79, 1-Trimethylsilyl-2,3,3-trimethylcyclopropene] |  | 10 |  | 
O=C(OCCC1=CC1)c1ccoc1 [Compound 48] |  | 10 |  | 

Source: patent publication US20110190137A1, “METHOD TO INHIBIT ETHYLENE RESPONSES IN PLANTS” (priority 2003, published 2011)
